95 compounds from PubChem BioAssay AID463203 (Broad Institute, 2010) can be followed below.

SMILES strings stand for the structures. The source made the active and inactive calls.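 How the source made its calls: active means more than half of replicate measurements showing over 20% loss of kinase signal relative to plate controls; inconclusive means some but at most half of replicates over 20% loss; inactive means no replicate over 20% signal loss.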

The experiment deals with Glycogen synthase kinase-3 alpha (Homo sapiens) (UniProt P49840). As to the kind of experiment: concentration-response blocking of human GSK3A – biochemical, luminescence, cell-free homogeneous, retest, dose response (AID 463203). The following applies: GSK-3 alpha enzyme, ADP-Glo luminescence, 60 min. Background: In ADP-Glo the light output rises with the ADP produced.
Sequence of Glycogen synthase kinase-3 alpha (Homo sapiens) (P49840 whole entry, looked up): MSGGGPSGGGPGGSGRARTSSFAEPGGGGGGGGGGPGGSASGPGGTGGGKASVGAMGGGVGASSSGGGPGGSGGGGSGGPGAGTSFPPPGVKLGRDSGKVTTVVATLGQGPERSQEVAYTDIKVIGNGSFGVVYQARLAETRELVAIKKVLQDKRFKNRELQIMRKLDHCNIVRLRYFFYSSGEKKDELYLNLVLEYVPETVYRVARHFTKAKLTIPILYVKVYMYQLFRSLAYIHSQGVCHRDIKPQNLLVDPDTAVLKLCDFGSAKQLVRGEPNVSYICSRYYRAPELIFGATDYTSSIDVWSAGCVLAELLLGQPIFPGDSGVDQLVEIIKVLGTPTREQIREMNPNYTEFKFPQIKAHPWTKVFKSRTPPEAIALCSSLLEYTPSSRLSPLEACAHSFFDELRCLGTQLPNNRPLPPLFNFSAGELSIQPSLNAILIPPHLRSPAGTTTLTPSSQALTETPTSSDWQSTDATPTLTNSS

With `COc1cc(/C=N/NC(=O)CSCc2ccc([N+](=O)[O-])cc2)cc(OC)c1OC`, the AC50 is > 30 µM (inactive).
In the case of `Cc1ccc(-c2cn3cccnc3n2)cc1NC(=O)c1cccs1` it was > 30 µM (inactive).
In the case of `Cc1oc2ccc(O)cc2c1C(=O)c1ccc(Br)cc1` it was > 30 µM (inactive); in that of `COC(=O)c1cnn(C(=O)c2cc(OC)ccc2Br)c1N`, > 30 µM (inactive); in that of `CC1CCC2(CC1)NC(=O)N(CC(=O)Nc1ccc(C(N)=O)cc1)C2=O` (stereo not given), > 30 µM (inactive).
In the case of `COc1ccc(CC(=O)Oc2cc(C)ccc2C)cc1` it was > 30 µM (inactive).
`CCCc1cc(C(N)=O)c(NC(=O)C2CCCO2)s1` (stereo not given): the AC50 is > 30 µM (inactive).
With `CCOC(=O)c1nc(NCc2ccccc2F)c2ccccc2n1` the figure was > 30 µM (inactive); with `COc1cccc(N/C(SC)=C(/C#N)C(N)=O)c1`, 30 µM; with `COc1ccccc1/C=N/NC(=O)c1ccccc1Cl`, > 30 µM (inactive).
In the case of `O=c1cc[nH]c2ccc(OC(F)(F)F)cc12` it was > 30 µM (inactive); in that of `CC(C)(C)NC(=O)/C(=C\c1ccccc1F)NC(=O)c1ccc([N+](=O)[O-])cc1`, > 30 µM (inactive).
With `Nc1ncnc2c1ncn2[C@@H]1O[C@H](COS(=O)(=O)O)[C@@H](O)[C@H]1O` the figure was > 30 µM (inactive).
Turning to `CC(OC(=O)Cc1c[nH]c2ccccc12)C(=O)N(C)c1ccccc1` (stereo not given), the AC50 is > 30 µM (inactive).
With `Nc1c(CO)nnn1-c1ccccc1` the figure was 11.4 µM; with `Cc1ccc(N=C2NC(=O)/C(=C\c3ccco3)S2)cc1`, > 30 µM (inactive).
In the case of `Cc1sc(NC(=S)NC(=O)C(C)(C)C)c(C(N)=O)c1C` it was > 30 µM (inactive); in that of `CN(C)c1ccc(/C=N/NC(=O)c2ccc(Cl)cc2)cc1`, > 30 µM (inactive); in that of `O=C(COC(=O)c1ccc(F)cc1F)Nc1ccc(Cl)cn1`, > 30 µM (inactive).
For the compound `CC(C)C(=O)Nc1cccc2nsnc12`, the AC50 is > 30 µM (inactive).
In the case of `O=C(NC1CCCC1)c1cccc(NC(=O)c2ccco2)c1`, the AC50 is > 30 µM (inactive).
In the case of `Cc1ccc(Sc2nc(-c3ccccc3)nnc2C(F)(F)F)cc1` it was > 30 µM (inactive); in that of `Cc1cc(=O)[nH]c2c(C)c(Cl)ccc12`, > 30 µM (inactive); in that of `COC(=O)c1ccc(CN2C(=O)NC(CC(C)C)C2=O)cc1` (stereo not given), > 30 µM (inactive).
In the case of `COCc1cc(C)nc(OCC(=O)N/N=C/c2ccc(O)cc2)c1C#N` it was 13.3 µM; in that of `O=C(O)Cn1c(=O)c2c3c(sc2n(Cc2ccccc2)c1=O)CCCC3`, > 30 µM (inactive).
Turning to `Cc1cccc(OCC(=O)NNC(=O)c2cc3ccccc3oc2=O)c1`, the AC50 is > 30 µM (inactive).
In the case of `CC1(C)CC(=O)C(C2c3ccccc3Oc3ccccc32)C(=O)C1` it was > 30 µM (inactive).
`O=C1NC(=Nc2ccccc2)S/C1=C\c1cccs1`: the AC50 was > 30 µM (inactive).
In the case of `Brc1ccc(C2=Nn3c(nnc3-c3cccnc3)SC2)s1` it was > 30 µM (inactive); in that of `CC(=O)c1c(O)cc(O)cc1CC(=O)O`, > 30 µM (inactive); in that of `CC(C)CSc1ncnc2c1oc1nc3c(cc12)COC(C)(C)C3`, > 30 µM (inactive).
In the case of `S=c1[nH]nc(-c2cc3c(s2)-c2ccccc2CC3)o1` it was 22.9 µM.
As for `COc1ccc(/C=C/c2nc3ccccc3n2C)cc1`, the AC50 was 11.4 µM.
With `Cc1cccc(N2CC(C(=O)Nc3nccs3)CC2=O)c1C` (stereo not given) the figure was > 30 µM (inactive).
With `O=C(NCc1ccc(C(=O)N2CCC3(CC2)OCCO3)cc1)c1ccc2c(c1)OCO2` the figure was > 30 µM (inactive).
As to `CC(C)C(=O)NC(=S)/C=C1/N(C)c2ccccc2C1(C)C`, the AC50 was > 30 µM (inactive).
In the case of `Cc1oc2ccc(O)c(CN(C)C)c2c1C(=O)c1ccccc1` it was > 30 µM (inactive); in that of `Cc1nc2cc(-c3ccccc3)ccc2o1`, > 30 µM (inactive).
In the case of `CCOC(=O)c1sc(NC(=O)C2CC2)cc1C` it was > 30 µM (inactive).
With `O=C(CNCC1CCCO1)Nc1ccc([N+](=O)[O-])cc1C(=O)Nc1ccccc1F` (stereo not given) the figure was > 30 µM (inactive); with `CC1=CC(=C2C(=O)c3ccccc3C2=O)C=C(C)N1Cc1ccco1`, > 30 µM (inactive); with `COc1ccc(C(=O)c2sc3nc(-c4ccc(OC)cc4)ccc3c2N)cc1`, > 30 µM (inactive).
For `COc1c(NC(C)=O)c2ccccc2c2ccccc12`, the AC50 was > 30 µM (inactive).
In the case of `CCOC(=O)Cc1c[nH]c2ccccc12` it was > 30 µM (inactive).
Take `COc1ccc(Nc2cc(C)nc(N)n2)cc1`: the AC50 is > 30 µM (inactive).
In the case of `Cc1cc(/C=N\NC(=O)c2cccs2)c(C)n1-c1ccc2ncccc2c1` it was > 30 µM (inactive).
With `NC(=O)c1sc2nc3c(c(-c4ccccc4)c2c1N)CCC3` the figure was 13.9 µM; with `CS(=O)(=O)Nc1ccc(-c2ccc(/C=C3\SC(N)=NC3=O)o2)cc1`, 1.02 µM.
In the case of `COc1ccc(C(=O)c2c(C(F)(F)F)oc3c2C(=O)c2ccccc2C3=O)cc1` it was > 30 µM (inactive); in that of `Fc1cccc(Nc2ncnc3sccc23)c1`, > 30 µM (inactive).
As for `NC(=O)c1cc(Br)cc2c3c([nH]c12)CCCC3`, the AC50 was 9.98 µM.
With `CCCOc1cc2c(C#N)c(N3CCCC3)nc(N)c2c(N)n1` the figure was > 30 µM (inactive); with `CC1CCCN(Cc2c(O)ccc3c2O/C(=C\c2ccco2)C3=O)C1` (stereo not given), 9.29 µM.
In the case of `COc1cc(/C=N/NC(=O)c2ccncc2)ccc1OCCN1CCCCC1` it was > 30 µM (inactive).
With `Cc1cc(C)nc(NS(=O)(=O)c2cccs2)c1` the figure was > 30 µM (inactive).
With `CCn1c(C)nc2cc(-c3nc4n(n3)Cc3ccccc3-4)ccc21`, the AC50 is 16.1 µM.
In the case of `Cc1cc(N/N=C/c2ccccc2Br)nc2ccccc12` it was > 30 µM (inactive); in that of `CC(C)(C)N=Cc1c(O)ccc2oc3c(c12)CCCC3`, > 30 µM (inactive); in that of `O=C1NC(=O)/C(=C/c2ccc(O)cc2)S1`, 27.2 µM.
With `COc1ccc(S(=O)(=O)Nc2c(C(=O)O)[nH]c3ccc(OC)cc23)cc1` the figure was 30.7 µM; with `CCC(=O)N1CCN(c2cc(NCC3CCCO3)c(F)cc2[N+](=O)[O-])CC1` (stereo not given), 21.7 µM.
For the compound `CCc1ccc(NC(=S)NC(=O)CC(C)C)cc1`, the AC50 is > 30 µM (inactive).
With `CCCC(=O)NC(=S)Nc1cccc(C(C)=O)c1` the figure was > 30 µM (inactive); with `COc1cccc(Cn2nnc(C(=O)Nc3cc(Cl)ccc3OC)c2N)c1`, > 30 µM (inactive); with `O=C1Nc2ccccc2C1(O)c1ccccc1O` (stereo not given), > 30 µM (inactive).
For `NC(=O)c1oc2ccccc2c1NC(=O)c1ccc(F)cc1`, the AC50 is > 30 µM (inactive).
With `COc1ccc(CCNC(=O)c2nnn(-c3ccccc3OC)c2N)cc1OC` the figure was 14.8 µM; with `COc1cc(/C=N/n2nnnc2N)ccc1OCC#N`, > 30 µM (inactive).
As to `CCn1c2ccccc2c2nnc(SCC(N)=O)nc21`, the AC50 was 15.4 µM.
With `CC(=O)Nc1ccc(OC(=O)CC2SC(=O)NC2=O)cc1` (stereo not given) the figure was > 30 µM (inactive).
On to `O=C1C2C3c4ccccc4C(c4ccccc43)C2C(=O)N1Cc1cccnc1` (stereo not given), for which the AC50 was > 30 µM (inactive).
With `COc1cc(-c2[nH]nc3c2C(c2ccoc2)C(C#N)=C(N)O3)cc(OC)c1OC` (stereo not given) the figure was 26.1 µM.
In the case of `COc1cc(C2c3sc(=O)[nH]c3SC3C4CCC(C4)C23)ccc1O` (stereo not given) it was 1.22 µM; in that of `O=C(CSc1nnc(SCc2ccccc2)s1)N/N=C/c1ccc(C(=O)O)cc1`, 2.55 µM.
With `CC1=C(C(=O)OCc2ccc3c(c2)OCO3)C(c2ccc(F)cc2)NC(=O)N1` (stereo not given) the figure was 20.3 µM; with `Cc1ccc(S(=O)(=O)Nc2ccc(O)c3cccnc23)cc1`, > 30 µM (inactive).
In the case of `CCS(=O)(=O)N1CCN(c2ccnc3cc(Cl)ccc23)CC1`, the AC50 was > 30 µM (inactive).
In the case of `CC1=[N+](C)c2ccc3ccccc3c2C1(C)C`, the AC50 was > 30 µM (inactive).
With `O=C(COc1ccccc1Cl)Nc1ccc(Cl)cn1` the figure was > 30 µM (inactive).
With `Cc1cc(C)c(S(=O)(=O)Nc2ccnc(-c3cccnc3)n2)c(C)c1` the figure was 5.52 µM; with `CC(=S)/C=C1\Sc2ccccc2N1C`, > 30 µM (inactive).
Turning to `Nc1nc(SCC(=O)Nc2ccc(Oc3ccccc3)cc2)n[nH]1`, the AC50 was > 30 µM (inactive).
With `Cc1ccc(CNc2nc(N)c([N+](=O)[O-])c(NCc3ccccc3)n2)cc1` the figure was > 30 µM (inactive).
With `O=C1CC(c2cccs2)CC2=C1C(c1ccccc1)n1ncnc1N2` (stereo not given) the figure was > 30 µM (inactive); with `Cc1nnc(SCC(=O)Nc2sc3c(c2C(=O)c2ccccc2)CCCC3)s1`, > 30 µM (inactive); with `COC(=O)[C@H](C)NC(=O)NCc1ccccc1F`, > 30 µM (inactive).
Turning to `COc1ccc(-n2c(C)nc(N)c2C(=O)c2ccccc2)cc1`, the AC50 is > 30 µM (inactive).
In the case of `O=C1NC(=Nc2cccc(O)c2)S/C1=C\c1cccc([N+](=O)[O-])c1` it was > 30 µM (inactive).
In the case of `Cc1cc(C)c(NC(=O)C2CCCN2CCOC(=O)c2cccc([N+](=O)[O-])c2)c(C)c1` (stereo not given) it was 13.6 µM.
In the case of `COc1ccc(COC(=O)C2=C(C)NC(=O)NC2c2cccc(Br)c2)cc1` (stereo not given) it was 16.9 µM.
For `O=[N+]([O-])c1ccc(NCCCN2CCOCC2)nc1`, the AC50 is > 30 µM (inactive).
With `CC(C)NC(=O)Nc1ccc(Br)cc1Cl` the figure was > 30 µM (inactive).
With `CCOc1cccc(-c2c(C(=O)N/N=C(\C)c3ccncc3)nnn2-c2nonc2N)c1` the figure was 1.45 µM.
In the case of `N#CC1=C(SCc2ccccc2)NC(=O)CC1c1ccco1` (stereo not given) it was > 30 µM (inactive).

The term AC50 denotes the midpoint of the concentration-response curve, whichever way the signal moves.
